Data taken from patent EP2800973B1 (priority 2012, dated 2013).
Like-named read-outs stand apart in the source and are kept apart here.

How the values were obtained:
BoCell™ model cell line = assay type: cell-based; conditions: for increase in BoCell™ Assay sensitivity: Figure 1, 24 hr pre-treatment with drug, then BoNT/A containing drug for an additional 24 hr, YFP/CFP emission ratio
neuroblastoma cells = conditions: pretreatment of cells; 1990 JBC paper; cited from earlier work
[1] = system: BoCell™ modified neuroblastoma cells; assay type: cell-based

For `CCCC(=O)Nc1ncnc2c1ncn2[C@@H]1O[C@@H]2COP(=O)(O)O[C@H]2[C@H]1OC(=O)CCC` [dibutyryl-cAMP, dibutyryl-cyclic AMP], the “increase in BoCell™ Assay sensitivity” value (BoCell™ model cell line) was “increased sensitivity was not seen” and the “increase in BoCell™ Assay sensitivity” value (BoCell™ model cell line; listed as db-cAMP) was “not”.

For `Nc1ncnc2c1nc(Br)n2[C@@H]1O[C@@H]2COP(=O)(O)O[C@H]2[C@H]1O` [8-Bromoadenosine-cAMP], the “increase in BoCell™ Assay sensitivity” value (BoCell™ model cell line) was “increased sensitivity was not seen” and the “increase in BoCell™ Assay sensitivity” value (BoCell™ model cell line; listed as 8-Br-cAMP) was “not”.

For `N=C(N)NCCNS(=O)(=O)c1cccc2cnccc12` [HA1004], the “morphologic changes in neuroblastoma cells” value (neuroblastoma cells) is given as “failed to induce morphologic changes”.

In the case of `CC1CNCCN1S(=O)(=O)c1cccc2cnccc12.Cl.Cl` (centres unmarked) [H7, 1-(5-isoquinolinylsulfonyl)-2-methylpiperazine dichloride], the cell viability (BoCells) is reported as “does not affect cell viability”, the “increase in BoCell™ Assay sensitivity” value (BoCell™ model cell line) is reported as “cause an increase in BoCell™ Assay sensitivity” and the “H7 effect on assay sensitivity, dose dependence” value (BoCell™ model cell line; Figure 2A, 24 hr pre-treatment, then BoNT/A with H7 for 24 hr) is reported as “dose dependent”. The “increase in sensitivity with multiple H7 lots” value (BoCell™ model cell line; Figure 5, 0.75 mM H7 from three independent manufacturers, 24 hrs pre-incubation, then BoNT/A 24 hrs) was “all cause an increase in sensitivity”, the “sensitivity of cells to BoNT/A treatment as measured by SNAP-25 reporter cleavage” value (BoCell™ model cell line; pretreatment of cells with H7) was “significantly increased” and the “H7 concentration giving maximal effects” value [1] was “ImM”. For the same molecule, the “neurite length and neurite number per cells” value [1] was “rapid increases in both neurite length and neurite number per cells”, the “reversibility of the phenotypic change” value [1] was “could be "rescued" by removal of the H7” and the “time and dose dependence of the H7 effect” value [1] was “both time and dose-dependent”.

For `CC(C)Cn1c(=O)n(C)c(=O)c2[nH]cnc21` [IBMX], the “increase in BoCell™ Assay sensitivity” value (BoCell™ model cell line) was “not and increased sensitivity was not seen”.

For Calphostin C, the “increase in BoCell™ Assay sensitivity” value (BoCell™ model cell line) was “increased sensitivity was not seen” and the “increase in BoCell™ Assay sensitivity” value (BoCell™ model cell line; listed as calphostin) was “not”.
